Experimental findings from ChEMBL document CHEMBL3603785, “Discovery and Optimization of 4-(8-(3-Fluorophenyl)-1,7-naphthyridin-6-yl)transcyclohexanecarboxylic Acid, an Improved PDE4 Inhibitor for the Treatment of Chronic Obstructive Pulmonary Disease (COPD)” (J Med Chem, 2015) are described below.

Data set [1] is described as follows: Thermodynamic aqueous solubility of the compound at pH 6.8. Format: physicochemical. As to conditions: for solubility thermodynamic: aqueous, read-out: Therm_solubility; for Therm_solubility: buffer.
Data set [2] addresses 3',5'-cyclic-AMP phosphodiesterase 4D (Homo sapiens, UniProt Q08499). The data set is described as follows: Inhibition of human PDE4D.
Data set [3] is described as follows: High throughput kinetic solubility of the compound at pH 6.8. The conditions noted are these: buffer, read-out: Kinetic_solubility. Format: physicochemical.
The test system of data set [4] is Rattus norvegicus. As to the kind of experiment: Half life in po dosed rat. The format is ADME, organism-based. As to conditions: in vivo.
Data set [5] deals with Rattus norvegicus. The data set is described as follows: AUC in po dosed rat. The format is ADME, organism-based. As to conditions: in vivo.
Data set [6] has as its system Rattus norvegicus. The data set is described as follows: AUC in rat at 4.2 uM/kg, po. The format is ADME, organism-based. As to conditions: in vivo.
Data set [7] has as its system Rattus norvegicus. The data set is described as follows: Half life in rat at 1.05 uM/kg, iv. The format is ADME, organism-based. As to conditions: in vivo.
The test system of data set [8] is Rattus norvegicus. As to the kind of experiment: Volume of distribution at steady state in rat at 1.05 uM/kg, iv. The conditions noted are these: in vivo. Format: ADME, organism-based.
Data set [9] deals with Rattus norvegicus. The data set is described as follows: AUC in rat at 2.1 uM/kg, po. Format: ADME, organism-based. The conditions noted are these: in vivo.
Data set [10] relates to Rattus norvegicus. The data set is described as follows: Oral bioavailability in rat at 2.1 uM/kg. The format is ADME, organism-based. The conditions noted are these: in vivo.

Values after ≈ are worked out from the molar mass of the structure shown.

Sequence of 3',5'-cyclic-AMP phosphodiesterase 4D (Q08499 whole entry): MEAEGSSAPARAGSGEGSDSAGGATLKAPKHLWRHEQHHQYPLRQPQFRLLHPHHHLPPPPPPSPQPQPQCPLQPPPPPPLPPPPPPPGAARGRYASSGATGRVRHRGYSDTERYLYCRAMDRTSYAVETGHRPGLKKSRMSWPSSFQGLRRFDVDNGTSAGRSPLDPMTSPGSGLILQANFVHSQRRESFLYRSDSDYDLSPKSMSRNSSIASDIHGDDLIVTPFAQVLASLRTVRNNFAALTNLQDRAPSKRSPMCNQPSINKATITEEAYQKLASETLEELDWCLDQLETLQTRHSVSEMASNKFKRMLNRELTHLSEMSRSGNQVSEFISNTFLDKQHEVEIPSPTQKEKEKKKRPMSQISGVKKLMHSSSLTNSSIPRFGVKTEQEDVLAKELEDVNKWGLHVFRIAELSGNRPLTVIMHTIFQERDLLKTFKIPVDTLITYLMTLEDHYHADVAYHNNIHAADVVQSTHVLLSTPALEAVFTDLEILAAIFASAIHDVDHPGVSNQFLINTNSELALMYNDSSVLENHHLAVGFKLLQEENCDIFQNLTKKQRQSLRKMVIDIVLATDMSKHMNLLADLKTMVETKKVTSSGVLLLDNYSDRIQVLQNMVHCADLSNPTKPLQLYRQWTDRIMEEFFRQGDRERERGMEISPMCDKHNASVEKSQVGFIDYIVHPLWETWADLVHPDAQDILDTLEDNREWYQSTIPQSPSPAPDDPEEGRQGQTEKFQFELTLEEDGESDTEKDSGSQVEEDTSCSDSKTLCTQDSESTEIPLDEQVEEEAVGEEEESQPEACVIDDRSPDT

Broadly, the IC50 is the concentration needed to halve the response being measured. A low value points to inhibition by little substance. Regarding `O=C(O)[C@H]1CC[C@H](c2cc3cccnc3c(-c3cccc(Cl)c3)n2)CC1`, in data set [1], the solubility thermodynamic was 0.14 µg/mL (≈ 0.382 µM). This molecule also showed an IC50 in [2] of 0.03 µM. Moreover, the solubility kinetic in data set [3] is 100 µg/mL (≈ 273 µM).

With `O=C(O)c1ccc(-c2cc3cccnc3c(-c3ccc4nonc4c3)n2)cc1`, in data set [1], the solubility thermodynamic is 2.3 µg/mL (≈ 6.24 µM). Further, the t1/2 in the data set on Rattus norvegicus [4] is 12 min. In the data set on Rattus norvegicus [5], this molecule showed an AUC of 523 µM/min.

`N#Cc1cccc(-c2nc([C@H]3CC[C@H](C(=O)O)CC3)cc3cccnc23)c1` yielded a Therm_solubility in data set [1] of 0.43 µg/mL. This molecule also yielded an AUC with Rattus norvegicus [6] of 112900 µM/min. Also, the solubility kinetic in data set [3] came to 20 µg/mL (≈ 56 µM).

Consider `N#Cc1cccc(-c2nc(N3CCC(O)CC3)cc3cccnc23)c1`, for which it took 0.022 µM to reach half-maximal inhibition in data set [2] (IC50).

Take `N#Cc1cccc(-c2nc(N3CCOCC3)cc3cccnc23)c1`: in data set [2], the IC50 came to 0.003 µM.

Molecule `N#Cc1cccc(-c2nc(N3CCC(CO)CC3)cc3cccnc23)c1` gave an IC50 in data set [2] of 0.013 µM.

The term Vdss denotes the apparent volume that relates the amount in the body to the concentration in plasma or blood. Lower therefore signals little distribution into tissue. Take `N#Cc1cccc(-c2nc(N3CCC(C(N)=O)CC3)cc3cccnc23)c1`: in data set [2], the IC50 was 0.008 µM. In the data set with Rattus norvegicus [7], this molecule gave a t1/2 of 8 min. In the data set on Rattus norvegicus [8], the Vdss stood at 2.9 L/kg.

Consider `O=C(O)C1CCN(c2cc3cccnc3c(-c3cccc(F)c3)n2)CC1`, for which the solubility thermodynamic in data set [1] is above 4 µg/mL. This molecule also yielded an AUC in the data set on Rattus norvegicus [6] of 3919 µM/min. In addition, the solubility kinetic in data set [3] is above 70 µg/mL.

Turning to `O=C(O)[C@H]1CC[C@H](c2cc3cccnc3c(-c3cccc(F)c3)n2)CC1`, in data set [1], the Therm_solubility is 0.92 µg/mL. The solubility kinetic in data set [3] came out at 10 µg/mL (≈ 28.5 µM). This molecule showed an AUC in the data set on Rattus norvegicus [9] of 4408 µM/min.

Molecule `COc1cccc(-c2nc([C@H]3CC[C@H](C(=O)O)CC3)cc3cccnc23)c1` returned a Therm_solubility in data set [1] of 0.15 µg/mL. In addition, in data set [3], the solubility kinetic stood at 20 µg/mL (≈ 55.2 µM).

Consider `N#Cc1cccc(-c2nc(N3CCC(C(=O)O)CC3)cc3cccnc23)c1`, for which the solubility thermodynamic in [1] was above 4 µg/mL. Moreover, the F in the data set on Rattus norvegicus [10] is given as 157.5%. Further, the solubility kinetic in [3] is 20 µg/mL (≈ 55.8 µM). Moreover, the AUC in the data set with Rattus norvegicus [9] is 2768 µM/min.
